Laboratory results from ChEMBL document CHEMBL1153978, “8-[2-(4-Aryl-1-piperazinyl)ethyl]-2H-1,4-benzoxazin-3(4H)-ones: dual-acting 5-HT1 receptor antagonists and serotonin reuptake inhibitors--part II” (Bioorg Med Chem Lett, 2009).

How the values were obtained:
[1] = Oral bioavailability in rat 1 mg/kg; assay type: ADME, organism-based; conditions: in vivo
[2] = Clearance in rat blood at 0.5 mg/kg, iv and 1 mg/kg, po; assay type: ADME, organism-based; conditions: whole blood
[3] = Half life in rat at 0.5 mg/kg, iv and 1 mg/kg, po; assay type: ADME, organism-based; conditions: in vivo
[4] = Volume of distribution at steady state in rat at 0.5 mg/kg, iv and 1 mg/kg, po; assay type: ADME, organism-based; conditions: in vivo, read-out: Vdss
Liver microsomes = test: Intrinsic clearance in human liver microsomes; assay type: ADME, Microsome
[5] = Ratio of drug level in rat brain to plasma at 0.5 mg/kg, iv and 1 mg/kg, po; assay type: ADME, organism-based

bioavailability [1] [%]	clearance [2] [mL/min/kg]	half-life [3] [h]	Vd [4] [L/kg]	CL (Liver microsomes) [mL/min/g]	Kp [5]	Structure (SMILES)
26	29	1	1.7	2.4	–	Cc1ccc2c(N3CCN(CCc4cccc5c4OCC(=O)N5C)CC3)cccc2n1
41	21	1.4	2.1	3.2	1.1	Cc1ccc2c(N3CCN(CCc4cccc5c4OCC(=O)N5C)CC3)cc(F)cc2n1
–	55	1.5	5.2	2.1	2.9	Cc1ccc2c(N3CCN(CCCc4cccc5c4OCC(=O)N5C)CC3)cccc2n1
–	–	–	2	< 0.5	–	Cc1ccc2c(N3CCN(CCc4ccc5c(c4)NC(=O)CO5)CC3)cccc2n1

Continued, molecule first:

Structure (SMILES)	bioavailability [1] [%]	clearance [2] [mL/min/kg]	half-life [3] [h]	Vd [4] [L/kg]	CL (Liver microsomes) [mL/min/g]	Kp [5]
Cc1ccc2c(N3CCN(CCc4cccc5c4OCC(=O)N5C)[C@@H](C)C3)cccc2n1	31	44	0.8	1.9	3.5	1.9
Cc1ccc2c(N3CCN(CCc4cccc5c4OCC(=O)N5)CC3)cccc2n1	63	8	5.2	3.4	1	–
Cc1ccc2c(N3CCN(CCc4ccc5c(c4)N(C)C(=O)CO5)CC3)cccc2n1	–	–	–	2.7	1.1	–
